Experimental data taken from patent publication US20230095836A1, “SUBSTITUTED 5,6-DIPHENYL-3(2H)-PYRIDAZINONES FOR USE AS FUNGICIDES” (FMC Corporation, priority 2020, published 2023).

Tests used:
Assay type in all cases: in vivo
Botrytis cinerea = experiment: Test E: test suspension sprayed on tomato seedlings, inoculated next day with Botrytis cinerea (tomato Botrytis); visual disease rating (100 = 100% disease control, 0 = no control; dash = not tested)
Method: (§1) The resulting test suspensions were then used in Tests A-F. The test suspension was sprayed to the point of run-off on tomato seedlings. The following day the seedlings were inoculated with a spore suspension of Botrytis cinerea (the causal agent of tomato Botrytis) and incubated in a saturated atmosphere at 20° C. for 48 h, and then moved to a growth chamber at 24° C. for 3 days, after which time visual disease ratings were made. A rating of 100 indicates 100% disease control and a rating of 0 indicates no disease control (relative to the controls). A dash (—) indicates the compound was not tested.

[1] = system: Puccinia recondita f. sp. tritici; experiment: Test B: test solution sprayed on wheat seedlings, inoculated next day with Puccinia recondita f. sp. tritici (wheat leaf rust); disease rating (100 = 100% disease control, 0 = no control; dash = not tested)
Text: The resulting test suspensions were then used in Tests A-F. The test solution was sprayed to the point of run-off on wheat seedlings. […] A rating of 100 indicates 100% disease control and a rating of 0 indicates no disease control (relative to the controls). A dash (—) indicates the compound was not tested.

Alternaria solani = experiment: Test F: test suspension sprayed on tomato seedlings, inoculated next day with Alternaria solani (tomato early blight); visual disease rating (100 = 100% disease control, 0 = no control; dash = not tested)
Method: as §1, with “Alternaria solani” for “Botrytis cinerea”, “early blight)” for “Botrytis)”, “27°” for “20°”, “20°” for “24°”

Zymoseptoria tritici = experiment: Test A: test solution sprayed on wheat seedlings, inoculated next day with Zymoseptoria tritici (wheat leaf blotch); disease rating (100 = 100% disease control, 0 = no control; dash = not tested)
Method: The resulting test suspensions were then used in Tests A-F. The test solution was sprayed to the point of run-off on wheat seedlings. The following day the seedlings were inoculated with a spore suspension of Zymoseptoria tritici (the causal agent of wheat leaf blotch) and incubated in a saturated atmosphere at 24° C. for 48 h, and then moved to a growth chamber at 20° C. for 17 days, after which time disease ratings were made. A rating of 100 indicates 100% disease control and a rating of 0 indicates no disease control (relative to the controls). A dash (—) indicates the compound was not tested.

Phakopsora pachyrhizi = experiment: Test D: test solution sprayed on soybean seedlings, inoculated next day with Phakopsora pachyrhizi (Asian soybean rust); visual disease rating (100 = 100% disease control, 0 = no control; dash = not tested)
Text: General protocol for preparing test suspensions for Tests A-F: the test compounds were first dissolved in acetone in an amount equal to 3% of the final volume and then suspended at the desired concentration (in ppm) in acetone and purified water (50/50 mix by volume) containing 250 ppm of the surfactant PEG400 (polyhydric alcohol esters). The resulting test suspensions were then used in Tests A-F.
The test solution was sprayed to the point of run-off on soybean seedlings. The following day the seedlings were inoculated with a spore suspension of Phakopsora pachyrhizi (the causal agent of Asian soybean rust) and incubated in a saturated atmosphere at 22° C. for 24 h and then moved to a growth chamber at 22° C. for 8 days, after which time visual disease ratings were made.
A rating of 100 indicates 100% disease control and a rating of 0 indicates no disease control (relative to the controls). A dash (—) indicates the compound was not tested.

[2] = system: Blumeria graminis f. sp. tritici; experiment: Test C: test suspension sprayed on wheat seedlings, inoculated next day with Blumeria graminis f. sp. tritici (wheat powdery mildew); visual disease rating (100 = 100% disease control, 0 = no control; dash = not tested)
Method: The resulting test suspensions were then used in Tests A-F. The test suspension was sprayed to the point of run-off on wheat seedlings. The following day the seedlings were inoculated with a spore dust of Blumeria graminis f. sp. tritici, (also known as Erysiphe graminis f. sp. tritici, the causal agent of wheat powdery mildew) and incubated in a growth chamber at 20° C. for 8 days, after which time visual disease ratings were made. A rating of 100 indicates 100% disease control and a rating of 0 indicates no disease control (relative to the controls). A dash (—) indicates the compound was not tested.

Structure (SMILES)	Test E disease control rating (Botrytis cinerea; 50 ppm)	Test B disease control rating ([1]; 50 ppm)	Test F disease control rating (Alternaria solani; 50 ppm)	Test A disease control rating (Zymoseptoria tritici; 50 ppm)	Test D disease control rating (Phakopsora pachyrhizi; 50 ppm)	Test E disease control rating (Botrytis cinerea; 250 ppm)	Test C disease control rating ([2]; 250 ppm)	Test B disease control rating ([1]; 250 ppm)	Test F disease control rating (Alternaria solani; 250 ppm)	Test A disease control rating (Zymoseptoria tritici; 250 ppm)	Test D disease control rating (Phakopsora pachyrhizi; 250 ppm)	further results
CC(O)c1c(-c2ccc(F)cc2Cl)c(-c2ccc(F)cc2Cl)nn(C)c1=O (racemic) [Compound 131]	97%	74%	0%	96%	19%							
CC(F)c1c(-c2ccc(F)cc2Cl)c(-c2ccc(F)cc2Cl)nn(C)c1=O (racemic) [Compound 132]	97%	68%	0%	100%	0%							
CCn1nc(-c2cc(OC)cc(OC)c2)c(-c2c(F)cccc2F)c(Cl)c1=O [Compound 1]						90%	0%	55%	0%	87%	0%	
CCn1nc(-c2c(Cl)c(OC)cc(OC)c2Cl)c(-c2c(F)cccc2F)cc1=O [Compound 2]						0%	0%	0%	0%	2%	0%	
CCn1nc(-c2cc(OC)cc(OC)c2)c(-c2cc(OC)cc(OC)c2)cc1=O [Compound 3]						0%	0%	0%	0%	7%	0%	
CCn1nc(-c2c(F)cccc2F)c(-c2cc(OC)cc(OC)c2)cc1=O [Compound 4, 6-(2,6-difluorophenyl)-5-(3,5-dimethoxyphenyl)-2-ethyl-3(2H)-pyridazinone]												pest or weed control at 250 ppm (Botrytis cinerea; 250 ppm): 9%; pest or weed control at 250 ppm ([2]; 250 ppm): 0%; pest or weed control at 250 ppm ([1]; 250 ppm): 0%; pest or weed control at 250 ppm (Alternaria solani; 250 ppm): 0%; pest or weed control at 250 ppm (Zymoseptoria tritici; 250 ppm): 66%; pest or weed control at 250 ppm (Phakopsora pachyrhizi; 250 ppm): 0%
Cn1nc(-c2c(F)cccc2F)c(-c2c(F)cccc2F)cc1=O [Compound 5, 5,6-bis(2,6-difluorophenyl)-2-methyl-3(2H)-pyridazinone]												pest or weed control at 250 ppm (Botrytis cinerea; 250 ppm): 99%; pest or weed control at 250 ppm ([2]; 250 ppm): 100%; pest or weed control at 250 ppm ([1]; 250 ppm): 0%; pest or weed control at 250 ppm (Alternaria solani; 250 ppm): 0%; pest or weed control at 250 ppm (Zymoseptoria tritici; 250 ppm): 42%; pest or weed control at 250 ppm (Phakopsora pachyrhizi; 250 ppm): 0%
CCn1nc(-c2ccc(F)cc2Cl)c(-c2ccc(F)cc2Cl)c(C#N)c1=O [Compound 7]						99%	0%	74%	0%	98%	0%	
CCn1nc(-c2cc(OC)cc(OC)c2Cl)c(-c2c(F)cccc2F)cc1=O [Compound 8]	99%	96%	0%	100%	75%							Test C disease control rating ([2]; 50 ppm): 97%
Cn1nc(-c2ccc(F)cc2Cl)c(-c2ccc(F)cc2Cl)c(C(F)F)c1=O [Compound 130]	98%	100%	98%	100%	77%							
Cn1nc(-c2ccc(F)cc2Cl)c(-c2ccc(F)cc2Cl)c(C(N)=O)c1=O [Compound 133]	0%	0%	0%	3%	0%							
COc1cc(C#N)cc(-c2nn(C)c(=O)c(Cl)c2-c2ccc(F)cc2Cl)c1 [Compound 173]	92%	100%	99%		84%							Test C disease control rating ([2]; 50 ppm): 94%
COc1cc(C#N)cc(-c2nn(C)c(=O)c(OC)c2-c2ccc(F)cc2Cl)c1 [Compound 174]	83%	95%	91%		30%							Test C disease control rating ([2]; 50 ppm): 97%
